viability, Activity and IC50 data for 22 compounds are collected here from ChEMBL document CHEMBL3860078, “Thioflavones as novel neuroprotective agents” (Bioorg Med Chem, 2016).

Data set [1] in a line: Neuroprotective activity against H2O2-induced oxidative stress in human SH-SY5Y cells assessed as cell viability at 3 uM preincubated for 24 hrs followed by H2O2 addition for 1 hr measured after 17 hrs by MTT assay relative to control. The format is functional. The settings on record: read-out: Activity. (Tetrazolium assays rely on reduction of a dye to a coloured formazan, in cell work by metabolically active cells.)

Data set [2] in a line: Neurotoxicity against human SH-SY5Y cells assessed as reduction in cell viability at 3 to 10 uM after 24 hrs by MTT assay. The format is toxicity, cell-based.
Data set [3] can be described thus: Neuroprotective activity in human SH-SY5Y cells assessed as protection against H2O2-induced oxidative stress at 0.3 uM preincubated for 24 hrs followed by H2O2 addition for 1 hr measured after 17 hrs by MTT assay relative to control. It is filed as functional, cell-based.
A short description of data set [4]: Antioxidant activity assessed as DPPH free radical scavenging activity at 3 uM after 30 mins incubation in dark. The format is functional. Background: The DPPH test is a chemical assay of radical scavenging.
Data set [5] can be described thus: Metal chelating activity assessed as Fe2+-compound complex fromation at 3 uM incubated for 5 mins in presence of ferrous chloride hexahydrate followed by ferrozine addition measured after 10 mins. It is filed as physicochemical.
Data set [6] deals with Mitogen-activated protein kinase; ERK1/ERK2 (Homo sapiens) (UniProt P27361+P28482). Description: Induction of ERK1/2 phosphorylation in human SH-SY5Y cells at 3 uM preincubated for 24 hrs followed by H2O2 addition for 1 hr by pathscan sandwich immunoassay. The format is cell-based.
Data set [7] concerns the target Serine/threonine-protein kinase mTOR (Homo sapiens) (UniProt P42345). Briefly: Induction of mTOR phosphorylation in human SH-SY5Y cells at 3 uM preincubated for 24 hrs followed by H2O2 addition for 1 hr by pathscan sandwich immunoassay. It is filed as cell-based.
For data set [8], the target named is T1, Bcl2-associated agonist of cell death (Homo sapiens) (UniProt Q92934).
T1 sequence (whole entry): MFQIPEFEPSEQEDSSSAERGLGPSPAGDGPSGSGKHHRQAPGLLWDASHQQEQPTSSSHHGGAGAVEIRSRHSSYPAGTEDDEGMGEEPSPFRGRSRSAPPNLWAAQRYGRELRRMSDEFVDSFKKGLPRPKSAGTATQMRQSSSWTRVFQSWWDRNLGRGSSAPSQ
Briefly: Induction of BAD phosphorylation in human SH-SY5Y cells at 3 uM preincubated for 24 hrs followed by H2O2 addition for 1 hr by pathscan sandwich immunoassay. It is filed as cell-based.

Data set [9] addresses Proline-rich AKT1 substrate 1 (Homo sapiens) (UniProt Q96B36). Description: Induction of PRAS40 phosphorylation in human SH-SY5Y cells at 3 uM preincubated for 24 hrs followed by H2O2 addition for 1 hr by pathscan sandwich immunoassay. It is filed as cell-based.
The test system of the next data set is SH-SY5Y. Briefly: Induction of AMPKalpha phosphorylation in human SH-SY5Y cells at 3 uM preincubated for 24 hrs followed by H2O2 addition for 1 hr by pathscan sandwich immunoassay. It is filed as cell-based.
The nature of data set [10]: Antioxidant activity assessed as DPPH free radical scavenging activity after 30 mins incubation in dark by UV-Vis spectrophotometric analysis. The format is functional.
A short description of data set [11]: Metal chelating activity assessed as Fe2+-compound complex fromation incubated for 5 mins in presence of ferrous chloride hexahydrate followed by ferrozine addition measured after 10 mins.
Data set [12] is described as follows: Neurotoxicity against human SH-SY5Y cells assessed as reduction in cell viability at 10 uM after 24 hrs by MTT assay. It is filed as toxicity, cell-based.
A short description of data set [13]: Antioxidant activity assessed as DPPH free radical scavenging activity after 30 mins incubation in dark. It is filed as functional.

Calls of active or inactive are those of the source. No cut-off for these calls is given here. A value given as a limit tells only on which side of the number the result lay.

Chain of Mitogen-activated protein kinase; ERK1/ERK2 (Homo sapiens) (P27361 whole entry, looked up): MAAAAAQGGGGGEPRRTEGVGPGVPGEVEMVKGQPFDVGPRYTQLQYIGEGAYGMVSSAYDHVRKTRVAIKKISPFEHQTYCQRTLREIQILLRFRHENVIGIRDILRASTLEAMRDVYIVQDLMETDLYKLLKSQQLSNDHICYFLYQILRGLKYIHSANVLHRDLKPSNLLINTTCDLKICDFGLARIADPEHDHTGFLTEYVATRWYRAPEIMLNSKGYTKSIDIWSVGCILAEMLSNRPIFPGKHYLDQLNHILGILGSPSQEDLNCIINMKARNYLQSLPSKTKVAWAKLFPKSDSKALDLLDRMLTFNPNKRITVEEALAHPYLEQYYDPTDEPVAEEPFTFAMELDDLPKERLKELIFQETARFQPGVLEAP
Chain of Mitogen-activated protein kinase; ERK1/ERK2 (Homo sapiens) (P28482 whole entry, looked up): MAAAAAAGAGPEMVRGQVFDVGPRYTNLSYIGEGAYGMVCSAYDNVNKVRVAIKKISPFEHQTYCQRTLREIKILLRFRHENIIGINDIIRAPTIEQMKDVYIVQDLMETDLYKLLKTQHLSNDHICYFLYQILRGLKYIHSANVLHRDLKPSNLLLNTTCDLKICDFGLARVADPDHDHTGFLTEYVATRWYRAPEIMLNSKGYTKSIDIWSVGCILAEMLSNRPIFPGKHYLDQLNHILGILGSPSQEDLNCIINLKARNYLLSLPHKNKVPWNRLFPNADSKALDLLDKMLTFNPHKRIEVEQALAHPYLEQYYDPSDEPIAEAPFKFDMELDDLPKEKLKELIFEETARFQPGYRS

For the compound `Oc1ccc2c(=S)cc(-c3cccs3)oc2c1O`, the viability at 3 µM in [1] is < 60%.
Take `O=c1cc(-c2ccc(F)cc2)oc2c(O)c(O)ccc12`: the viability at 3 µM in data set [1] is 88.8%. Moreover, the Activity result in data set [2] is given as “Non-Toxic”.
`Oc1ccc2c(=S)cc(-c3ccccc3)oc2c1O`: the viability at 3 µM in data set [1] is 72.4%.
On the same count and under the same terms, as for `O=c1cc(-c2ccccc2)oc2cc(O)cc(O)c12` [CHRYSIN], the figure is < 50%.
With `Oc1ccc2c(=S)cc(-c3ccc(Cl)cc3)oc2c1O`, the viability at 3 µM in [1] came to 107%. The Activity in data set [3] was > 70%; in data set [2] it was “Non-Toxic”; in data set [4], 1.7%; in [5], 5%. In addition, the result (in data set [6]; in data set [7]; in [8]; in data set [9]; in the data set on SH-SY5Y) was Active.
For the compound `O=c1cc(-c2ccc(O)c(O)c2)oc2cc(O)cc(O)c12` [LUTEOLIN], the viability at 3 µM in [1] turned out to be 98.3%. Further, the Activity in data set [4] worked out at 1.9%; in [5] it was 3.4%.
As for `O=c1cc(-c2ccco2)oc2c(O)c(O)ccc12`, the viability at 3 µM in [1] was < 60%.
In the case of `O=c1cc(-c2ccccc2)oc2c(O)c(O)ccc12` [7,8-DIHYDROXYFLAVONE], the viability at 3 µM in data set [1] was in the range of 96.2 to 97%. Besides, the Activity result in data set [2] was “Non-Toxic”; in data set [4], 1.4%; in data set [5], 3.7%. For the same compound, in [8], the outcome was Active. Also, the IC50 (commonly the concentration that gives 50% inhibition) in [10] amounted to 15.5 µM.
As to `Oc1ccc2c(=S)cc(-c3ccc(F)cc3)oc2c1O`, the viability at 3 µM in [1] was determined as 97.4%. Moreover, the Activity entry in [2] was “Non-Toxic”.
Turning to `Oc1cc(O)c2c(=S)cc(-c3ccccc3)oc2c1`, the viability at 3 µM in data set [1] was < 50%.
The same measure, in the same setting: as for `O=c1cc(-c2cccs2)oc2c(O)c(O)ccc12`, the figure is < 60%.
On to `N#Cc1ccc(-c2cc(=S)c3ccc(O)c(O)c3o2)cc1`, for which the viability at 3 µM in data set [1] came out at 106%. Besides, the Activity in data set [3] was > 70%; in data set [2] it was “Non-Toxic”; in data set [4], 1.3%; in [5], 3.9%. Besides, the outcome (in [6]; in data set [7]; in the data set on SH-SY5Y) was Active.
Turning to `Oc1ccc2c(=S)cc(-c3cccnc3)oc2c1O`, in data set [1], the viability at 3 µM is < 60%.
`O=C(O)CN(CCN(CC(=O)O)CC(=O)O)CC(=O)O` [EDETIC ACID]: the half-maximal inhibitory concentration (IC50) in [11] was found to be 42 µM. Further, the Activity in data set [5] is reported as 6.9%.
`O=c1cc(-c2ccc(Br)cc2)oc2c(O)c(O)ccc12`: in data set [1], the viability at 3 µM amounted to 84%. The Activity entry in data set [2] was “Non-Toxic”.
Take `Oc1ccc2c(=S)cc(-c3ccco3)oc2c1O`: the viability at 3 µM in data set [1] was < 60%.
As for `O=c1cc(-c2ccc(Cl)cc2)oc2c(O)c(O)ccc12`, the viability at 3 µM in [1] came to 93.4%. Besides, the figures for the Activity in data set [4] and in data set [5] were 1.4% and 3.7%, respectively. Further, the outcome in data set [7] was Active.
For `N#Cc1ccc(-c2cc(=O)c3ccc(O)c(O)c3o2)cc1`, the viability at 3 µM in data set [1] was found to be 84.6%.
As to `Oc1ccc2c(=S)cc(-c3ccc(Br)cc3)oc2c1O`, the viability at 3 µM in data set [1] is 97.8%. Moreover, the Activity was found to be 52% in data set [12], 1.6% in [4] and 4.4% in [5]. Further, the outcome in data set [8] was Active.
On to `Oc1cc(O)c2c(=S)cc(-c3ccc(O)c(O)c3)oc2c1`, for which the viability at 3 µM in [1] lay in the range of 67.4 to 73%. Also, the Activity entry in data set [2] is given as “Non-Toxic”.
Consider `O=c1cc(-c2cccnc2)oc2c(O)c(O)ccc12`, for which, in [1], the viability at 3 µM was < 60%.
Regarding `O=C1O[C@H]([C@@H](O)CO)C(O)=C1O` [ASCORBIC ACID], the Activity in [4] was 1.3%. In addition, the concentration for half-maximal inhibition (IC50) in data set [13] was determined as 330 µM.
